Patent US10253002B2, “Compounds and methods of treating infections” (Neoculi Pty Ltd., priority 2013, dated 2019)
Converted amounts (≈) assume the structure as drawn. “And” between values parts separate entries of the source, which are not always exact repeats. Identical values can stand only once. Like-named read-outs stand apart in the source and are kept apart here.

What was measured:
[1] = system: Streptococcus pneumoniae; test: Broth microdilution MIC (CLSI) in 4% LHB-CAMHB, Example 1; assay type: cell-based; conditions: Streptococcus pneumoniae, read-out: MIC
Protocol: The powder was dissolved in 10 mL DMSO and 1 mL volumes were aliquoted into eppendorf tubes and stored at -80° C. […] Serial dilutions were prepared in 96 well plates were set up in a safety cabinet according to methods standard in the art. Briefly: 90 μL of the working antibiotic solution was added to each well in Column 12 of the plate, and mixed well, before 90 μL was transferred to column 11. The solutions were mixed again, and then transferred to the next column as before, continuing the dilutions through to column 3. Mixing the well requires the pick up and expulsion of 90 μL in each well 3-4 times before picking up and transferring the 90 μL to the next well. […] The bacterial solution was placed into a sterile trough and 10 μL of bacterial solution added into wells 2 through to 12 on each required row (dilution of 1:10, with final concentration of bacteria in wells=5×10^5 CFU/mL). The tray was sealed and incubated at 37° C. for 18-24 h. The purity of bacterial suspension was confirmed by streaking out 50 μL of the 1:20 dilution onto a SBA plate, which was incubated for 37° C. for 18 h and examined. Viable counts were carried out to ensure that the correct concentration of bacteria and been added to the wells. […] The following day the number of colonies on the plates was counted and the average count in 100 μL obtained. The study was multiplied by 10 to obtain a viable bacterial count per mL. Minimum inhibitory concentrations (μg/mL) were determined using the broth microdilution method recommended by the Clinical and Laboratory Standards Institute (CLSI) (Methods for Dilution Antimicrobial Susceptibility Tests for Bacteria That Grow Aerobically; Approved Standard-Seventh Edition. CLSI M7-A7, 2006; Performance Standards for Antimicrobial Disk and Dilution Susceptibility Tests for Bacteria Isolated from Animals; Approved Standard-Second Edition. CLSI […]-A2, 2002; Performance Standards for Antimicrobial Susceptibility Testing; CLSI M2-A9, 2006). […] Bacterial growth (turbidity) in the wells with antimicrobial was compared with the amount of growth (turbidity) in the growth-control well (containing no antimicrobial). All isolates were tested in duplicate, if there was a difference of greater than one two-fold dilution in the results, the test was repeated a third time. The purity of the isolates was closely monitored during testing by subculturing the prepared bacterial inoculum onto SBA. Control organisms (Enterococcus faecalis strain ATCC 29212, S. aureus strain ATCC 29213 and S. pneumoniae strain ATCC 49619) were used throughout the testing to monitor quality control. […] The MIC50, MIC90 and MIC range (minimum and maximum) were calculated for each of the bacterial groups.

[2] = system: VRE; test: Broth microdilution MIC, Example 7 (NCL812 and analogues); assay type: cell-based, Enterococcus spp.; conditions: for MIC: Enterococcus, VRE
Outline: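 Turbidity read visually and then at 600 nm defined the MIC (μg/ml), comparing drug-containing wells with a growth-control well lacking antimicrobial. Testing followed the CLSI broth microdilution method, in duplicate, using two strains per organism group.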

## N=C(N/N=C/c1ccc(Cl)cc1)N/N=C/c1ccc(Cl)cc1 [NCL812, 1,3-bis[(E)-(4-chlorophenyl)methyleneamino]guanidine]
[1]; Strep. pneumoniae 3, Test 2
  MIC: 2 µg/mL (≈ 5.98 µM)
[1]; Strep. pneumoniae 16, Test 1
  MIC: 0.5 µg/mL (≈ 1.5 µM)
[1]; Strep. pneumoniae 16, Test 2
  MIC: 1 µg/mL (≈ 2.99 µM)
[2]; 24 h, read-out: MIC (μg/ml) at 24 hours, VRE 1, isolate VRE 1, 24 hours, 1st and 2nd replicate rows
  MIC: 2 µg/mL (≈ 5.98 µM)
[2]; 24 h, read-out: MIC (μg/ml) at 24 hours, VRE 2, isolate VRE 2, 24 hours, 1st and 2nd replicate rows
  MIC: 2 µg/mL (≈ 5.98 µM)
[2]; VRE 002 [H12c], Phase I, 1st, read-out: MIC
  MIC: 4 µg/mL (≈ 12 µM)
[2]; VRE 002 [H12c], Phase I, 2nd, read-out: MIC
  MIC: 4 µg/mL (≈ 12 µM)
[2]; VRE 002 [H12c], Phase II, 1st, read-out: MIC
  MIC: 2 µg/mL (≈ 5.98 µM)
[2]; VRE 002 [H12c], Phase II, 2nd, read-out: MIC
  MIC: 2 µg/mL (≈ 5.98 µM)
[2]; VRE 003 [H14t], Phase I, 1st, read-out: MIC
  MIC: 2 µg/mL (≈ 5.98 µM)
[2]; VRE 003 [H14t], Phase I, 2nd, read-out: MIC
  MIC: 2 µg/mL (≈ 5.98 µM)
[2]; VRE 003 [H14t], Phase II, 1st, read-out: MIC
  MIC: 2 µg/mL (≈ 5.98 µM)
[2]; VRE 003 [H14t], Phase II, 2nd, read-out: MIC
  MIC: 2 µg/mL (≈ 5.98 µM)
[2]; VRE 004 [H16c], Phase I, 1st, read-out: MIC
  MIC: 4 µg/mL (≈ 12 µM)
[2]; VRE 004 [H16c], Phase I, 2nd, read-out: MIC
  MIC: 4 µg/mL (≈ 12 µM)
[2]; VRE 004 [H16c], Phase II, 1st, read-out: MIC
  MIC: 2 µg/mL (≈ 5.98 µM)
[2]; VRE 004 [H16c], Phase II, 2nd, read-out: MIC
  MIC: 2 µg/mL (≈ 5.98 µM)
[2]; VRE 005 [H17c], Phase I, 1st, read-out: MIC
  MIC: 2 µg/mL (≈ 5.98 µM)
[2]; VRE 005 [H17c], Phase I, 2nd, read-out: MIC
  MIC: 2 µg/mL (≈ 5.98 µM)
[2]; VRE 005 [H17c], Phase II, 1st, read-out: MIC
  MIC: 2 µg/mL (≈ 5.98 µM)
[2]; VRE 005 [H17c], Phase II, 2nd, read-out: MIC
  MIC: 2 µg/mL (≈ 5.98 µM)
[2]; VRE 006 [H19t], Phase I, 1st, read-out: MIC
  MIC: 2 µg/mL (≈ 5.98 µM)
[2]; VRE 006 [H19t], Phase I, 2nd, read-out: MIC
  MIC: 2 µg/mL (≈ 5.98 µM)
[2]; VRE 006 [H19t], Phase II, 1st, read-out: MIC
  MIC: 2 µg/mL (≈ 5.98 µM)
[2]; VRE 006 [H19t], Phase II, 2nd, read-out: MIC
  MIC: 2 µg/mL (≈ 5.98 µM)
[2]; VRE 007 [H23c], Phase I, 1st, read-out: MIC
  MIC: 4 µg/mL (≈ 12 µM)
[2]; VRE 007 [H23c], Phase I, 2nd, read-out: MIC
  MIC: 4 µg/mL (≈ 12 µM)
[2]; VRE 007 [H23c], Phase II, 1st, read-out: MIC
  MIC: 2 µg/mL (≈ 5.98 µM)
[2]; VRE 007 [H23c], Phase II, 2nd, read-out: MIC
  MIC: 2 µg/mL (≈ 5.98 µM)
[2]; VRE 008 [H16c(dc)], Phase I, 1st, read-out: MIC
  MIC: 4 µg/mL (≈ 12 µM)
[2]; VRE 008 [H16c(dc)], Phase I, 2nd, read-out: MIC
  MIC: 4 µg/mL (≈ 12 µM)
[2]; VRE 008 [H16c(dc)], Phase II, 1st, read-out: MIC
  MIC: 2 µg/mL (≈ 5.98 µM)
[2]; VRE 008 [H16c(dc)], Phase II, 2nd, read-out: MIC
  MIC: 2 µg/mL (≈ 5.98 µM)
[2]; VRE 009 [H25c], Phase I, 1st, read-out: MIC
  MIC: 4 µg/mL (≈ 12 µM)
[2]; VRE 009 [H25c], Phase I, 2nd, read-out: MIC
  MIC: 4 µg/mL (≈ 12 µM)
[2]; VRE 009 [H25c], Phase II, 1st, read-out: MIC
  MIC: 2 µg/mL (≈ 5.98 µM)
[2]; VRE 009 [H25c], Phase II, 2nd, read-out: MIC
  MIC: 2 µg/mL (≈ 5.98 µM)
[2]; VRE 010 [H26c(w)], Phase I, 1st, read-out: MIC
  MIC: 4 µg/mL (≈ 12 µM)
[2]; VRE 010 [H26c(w)], Phase I, 2nd, read-out: MIC
  MIC: 4 µg/mL (≈ 12 µM)
[2]; VRE 010 [H26c(w)], Phase II, 1st, read-out: MIC
  MIC: 2 µg/mL (≈ 5.98 µM)
[2]; VRE 010 [H26c(w)], Phase II, 2nd, read-out: MIC
  MIC: 2 µg/mL (≈ 5.98 µM)
[2]; VRE 011 [H26c(dc)], Phase I, 1st, read-out: MIC
  MIC: 2 µg/mL (≈ 5.98 µM)
[2]; VRE 011 [H26c(dc)], Phase I, 2nd, read-out: MIC
  MIC: 4 µg/mL (≈ 12 µM)
[2]; VRE 011 [H26c(dc)], Phase II, 1st, read-out: MIC
  MIC: 2 µg/mL (≈ 5.98 µM)
[2]; VRE 011 [H26c(dc)], Phase II, 2nd, read-out: MIC
  MIC: 2 µg/mL (≈ 5.98 µM)
[2]; VRE 012 [H35t], Phase I, 1st, read-out: MIC
  MIC: 2 µg/mL (≈ 5.98 µM)
[2]; VRE 012 [H35t], Phase I, 2nd, read-out: MIC
  MIC: 2 µg/mL (≈ 5.98 µM)
[2]; VRE 012 [H35t], Phase II, 1st, read-out: MIC
  MIC: 2 µg/mL (≈ 5.98 µM)
[2]; VRE 012 [H35t], Phase II, 2nd, read-out: MIC
  MIC: 2 µg/mL (≈ 5.98 µM)
[2]; VRE 013 [H37c(w)], Phase I, 1st, read-out: MIC
  MIC: 2 µg/mL (≈ 5.98 µM)
[2]; VRE 013 [H37c(w)], Phase I, 2nd, read-out: MIC
  MIC: 2 µg/mL (≈ 5.98 µM)
[2]; VRE 013 [H37c(w)], Phase II, 1st, read-out: MIC
  MIC: 2 µg/mL (≈ 5.98 µM)
[2]; VRE 013 [H37c(w)], Phase II, 2nd, read-out: MIC
  MIC: 2 µg/mL (≈ 5.98 µM)
[2]; VRE 014 [H37c(g)], Phase I, 1st, read-out: MIC
  MIC: 4 µg/mL (≈ 12 µM)
[2]; VRE 014 [H37c(g)], Phase I, 2nd, read-out: MIC
  MIC: 4 µg/mL (≈ 12 µM)
[2]; VRE 014 [H37c(g)], Phase II, 1st, read-out: MIC
  MIC: 2 µg/mL (≈ 5.98 µM)
[2]; VRE 014 [H37c(g)], Phase II, 2nd, read-out: MIC
  MIC: 2 µg/mL (≈ 5.98 µM)
[2]; bioassay ranking, read-out: VRE
  MIC: 1.75 µg/mL (≈ 5.24 µM)
[2]; isolate VRE 1, 24 hours, 1st and 2nd replicate rows
  MIC (μg/ml) at 24 hours, VRE 1: 2 µg/mL (≈ 5.98 µM)
[2]; isolate VRE 2, 24 hours, 1st and 2nd replicate rows
  MIC (μg/ml) at 24 hours, VRE 2: 2 µg/mL and 1 µg/mL
